Source: paper PMC11079029, “Intramolecular autoinhibition regulates the selectivity of PRPF40A tandem WW domains for proline-rich motifs” (Nature Communications, 2024)

Tests used:
PRPF40A N-ext-WW12 = test: NMR titration (1H-15N and 1H-13C HSQC) of N-ext-WW12 with SF1 peptides; assay type: binding, human; settings: NMR titration of N-ext-WW12, ratios 1:1 up to 1:4
Procedure: (§1) NMR samples were prepared at concentrations ranging 100–1000 μM in buffer containing 20 mM sodium phosphate pH 6.5, 100 mM NaCl, 1 mM DTT, and 10% or 100% D2O, and measured at 25 °C (except stated otherwise) in 900-, 800-, 600- and 500-MHz Bruker Avance III NMR spectrometers equipped with cryogenic triple resonance gradient probes. Topspin 4.1.0 (Bruker) software was used for NMR data acquisition. Spectra were processed with NMRpipe 8.9[76] and analyzed using ccpnNMR Analysis 2.5 software.
(§2) ^15N-labeled PRPF40A proteins (WW1, WW2, WW12, and N-extWW12) at around 100 μM concentration were titrated with increasing concentration ratios of polyproline or SF1 peptides (GB1 tagged) until reaching saturation, when possible; ^1H-^15N HSQC experiments and in some cases ^1H-^13C HSQC experiments (using double-labeled PRPF40A proteins) were acquired at each titration point. The chemical shift perturbation (CSP) was weighted using the Eqs. (1) and (2)[89].1 CSP(HN)=0.5⋅ΔδH2+0.14⋅ΔδN2 2 CSP(HC)=0.5⋅ΔδH2+0.3⋅ΔδC2

PRPF40A WW12 = test: NMR titration (1H-15N HSQC, chemical shift perturbation) of WW12 with polyproline or SF1 peptides; assay type: binding, human; settings: 15N-labelled WW12 around 100 μM, unlabelled GB1-tagged peptide, 25 °C
Procedure: as §1, §2

PPLPPGAPPPPPPPPP [SF1WWbs]
displacement of the intramolecular N-terminal motifs (methyl signals Val 80, Val 129) (PRPF40A N-ext-WW12): able to displace the intramolecular interaction | binding by NMR titration, exchange regime (PRPF40A WW12): slow exchange regime
